Test results reported in patent publication US10933039B2, “Coolant mixtures” (Symrise AG, priority 2016, dated 2021).

test: Sensory evaluation of coolant mixtures by a panel of 5 trained testers (cooling effect and flavor profile) in a standard chewy candy preparation; type: in vivo; conditions: panel score (5)=very true to (0)=largely not true; mean values of 5 trained testers; unsweetened, non-aromatized standard chewy candy preparation
Protocol: The cooling effect and flavor profile of various coolant mixtures were evaluated by a panel consisting of 5 trained testers. For this purpose, the mixtures were incorporated into an unsweetened and non-aromatized standard chewy candy preparation. The evaluation was reported according to the notation (5)=very true to (0)=largely not true. Data are mean values.

Row | Structure (SMILES) | Cooling effect is strong | Cooling effect occurs rapidly
1 | CC(C)C=O [C1, Isobutyraldehyde] | 3.2 | 2.1
2 | CC(C)CC=O [C2, Isovaleraldehyde] | 3.1 | 2.0
3 | CC(C)C(=O)O [C3, Isobutyric acid] | 3.0 | 2.2
4 | CC(C)CC(=O)O [C4, Isovaleric acid] | 3.1 | 2.5
